The values below come from ChEMBL document CHEMBL4184160, “Recent Progress of Small-Molecule Epidermal Growth Factor Receptor (EGFR) Inhibitors against C797S Resistance in Non-Small-Cell Lung Cancer” (J Med Chem, 2018).

The target of test [1] is Epidermal growth factor receptor (Homo sapiens, UniProt P00533). As to the kind of experiment: Inhibition of wild type recombinant N-terminal GST-tagged human EGFR catalytic domain expressed in Sf9 insect cells using poly-Glu-Tyr (4:1) as substrate after 2 hrs in presence of [gamma-33P]-ATP by filter-binding method.
Epidermal growth factor receptor (Homo sapiens, UniProt P00533), sequence (P00533 whole entry, the tested form may be a part): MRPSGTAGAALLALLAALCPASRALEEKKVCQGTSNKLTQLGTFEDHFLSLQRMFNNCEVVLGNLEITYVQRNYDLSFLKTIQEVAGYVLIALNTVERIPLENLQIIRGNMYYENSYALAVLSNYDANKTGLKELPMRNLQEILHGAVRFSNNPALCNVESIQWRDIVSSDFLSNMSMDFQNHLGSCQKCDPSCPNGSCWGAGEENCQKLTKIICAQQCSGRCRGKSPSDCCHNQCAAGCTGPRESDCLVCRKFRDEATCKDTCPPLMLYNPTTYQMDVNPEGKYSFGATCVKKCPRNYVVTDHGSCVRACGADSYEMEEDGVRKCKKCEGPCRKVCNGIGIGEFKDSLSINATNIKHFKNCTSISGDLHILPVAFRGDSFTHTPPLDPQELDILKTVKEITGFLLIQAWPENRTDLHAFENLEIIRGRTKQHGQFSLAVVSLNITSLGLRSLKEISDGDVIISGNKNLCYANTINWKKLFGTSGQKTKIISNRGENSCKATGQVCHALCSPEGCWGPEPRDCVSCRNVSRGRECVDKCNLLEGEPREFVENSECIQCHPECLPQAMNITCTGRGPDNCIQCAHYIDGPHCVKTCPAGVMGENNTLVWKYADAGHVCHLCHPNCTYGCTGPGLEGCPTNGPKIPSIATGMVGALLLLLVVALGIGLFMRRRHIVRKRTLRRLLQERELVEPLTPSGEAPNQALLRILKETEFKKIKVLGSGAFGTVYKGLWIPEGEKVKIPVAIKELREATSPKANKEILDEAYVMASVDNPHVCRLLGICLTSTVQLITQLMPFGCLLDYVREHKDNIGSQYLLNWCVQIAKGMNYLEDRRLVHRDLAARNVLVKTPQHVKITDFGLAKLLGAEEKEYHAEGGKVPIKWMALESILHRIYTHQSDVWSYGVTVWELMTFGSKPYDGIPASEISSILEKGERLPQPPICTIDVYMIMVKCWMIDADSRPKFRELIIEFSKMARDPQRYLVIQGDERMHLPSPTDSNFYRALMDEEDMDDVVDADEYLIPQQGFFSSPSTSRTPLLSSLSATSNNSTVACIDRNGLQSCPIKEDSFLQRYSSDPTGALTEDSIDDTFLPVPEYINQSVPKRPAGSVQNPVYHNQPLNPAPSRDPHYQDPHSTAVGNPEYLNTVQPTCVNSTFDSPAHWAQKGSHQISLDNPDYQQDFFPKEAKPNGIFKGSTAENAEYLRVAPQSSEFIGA
The target in test [2] is Epidermal growth factor receptor (Homo sapiens, UniProt P00533, 746-750DEL/C797S/T790M). As to the kind of experiment: Inhibition of recombinant human EGFR d746-750/T790M/C797S mutant using poly-Glu-Tyr (4:1) as substrate after 2 hrs in presence of [gamma-33P]-ATP by filter-binding method.
Epidermal growth factor receptor (Homo sapiens, UniProt P00533, 746-750DEL/C797S/T790M), sequence (P00533 whole entry, looked up, stated change not applied, the tested form may be a part): as the sequence (P00533 whole entry, the tested form may be a part) above
The species entered for test [3] is Homo sapiens. As to the kind of experiment: Selectivity ratio of IC50 for wild type recombinant N-terminal GST-tagged human EGFR catalytic domain to IC50 for recombinant human EGFR d746-750/T790M/C797S mutant.
A further test concerns NCI-H1975. As to the kind of experiment: Growth inhibition of human NCI-H1975 cells after 96 hrs by CellTiter-Glo assay. It counts as functional. The settings on record: NCI-H1975, 96 h. On the technique in general: In ATP-based viability assays light output follows the ATP content of the culture.
Test [4] has as its target Epidermal growth factor receptor (Homo sapiens, UniProt P00533, C797S/T790M). As to the kind of experiment: Inhibition of N-terminal GST-fused human EGFR cytoplasmic domain T790M/C797S mutant expressed in baculovirus expression system using TK-substrate after 20 mins by HTRF KinEASE-TK assay. (TR-FRET usually uses a lanthanide donor and a delayed reading to cut background.)

Test [5] addresses Epidermal growth factor receptor (Homo sapiens, UniProt P00533, C797S/L858R/T790M). As to the kind of experiment: Inhibition of recombinant human EGFR L858R/T790M/C797S mutant using TK-substrate after 10 mins by HTRF KinEASE-TK assay.
Test [6] is filed under the species Homo sapiens. As to the kind of experiment: Selectivity ratio of IC50 for human EGFR T790M mutant to IC50 for human wild type EGFR.
Test [7] relates to Epidermal growth factor receptor (Homo sapiens), P00533 [UNDEFINED MUTATION].
Epidermal growth factor receptor (Homo sapiens), P00533 [UNDEFINED MUTATION], sequence (P00533 whole entry, looked up, change not shown): as the sequence (P00533 whole entry, the tested form may be a part) above
Description: Inhibition of human EGFR del19/T790M/C797S mutant expressed in mouse Ba/F3 cells assessed as cell growth inhibition after 72 hrs by CellTiter-Glo assay

Bounds are passed on as bounds.

Epidermal growth factor receptor (Homo sapiens, UniProt P00533, C797S/T790M), sequence (P00533 25-1210 T790M/C797S limits assumed): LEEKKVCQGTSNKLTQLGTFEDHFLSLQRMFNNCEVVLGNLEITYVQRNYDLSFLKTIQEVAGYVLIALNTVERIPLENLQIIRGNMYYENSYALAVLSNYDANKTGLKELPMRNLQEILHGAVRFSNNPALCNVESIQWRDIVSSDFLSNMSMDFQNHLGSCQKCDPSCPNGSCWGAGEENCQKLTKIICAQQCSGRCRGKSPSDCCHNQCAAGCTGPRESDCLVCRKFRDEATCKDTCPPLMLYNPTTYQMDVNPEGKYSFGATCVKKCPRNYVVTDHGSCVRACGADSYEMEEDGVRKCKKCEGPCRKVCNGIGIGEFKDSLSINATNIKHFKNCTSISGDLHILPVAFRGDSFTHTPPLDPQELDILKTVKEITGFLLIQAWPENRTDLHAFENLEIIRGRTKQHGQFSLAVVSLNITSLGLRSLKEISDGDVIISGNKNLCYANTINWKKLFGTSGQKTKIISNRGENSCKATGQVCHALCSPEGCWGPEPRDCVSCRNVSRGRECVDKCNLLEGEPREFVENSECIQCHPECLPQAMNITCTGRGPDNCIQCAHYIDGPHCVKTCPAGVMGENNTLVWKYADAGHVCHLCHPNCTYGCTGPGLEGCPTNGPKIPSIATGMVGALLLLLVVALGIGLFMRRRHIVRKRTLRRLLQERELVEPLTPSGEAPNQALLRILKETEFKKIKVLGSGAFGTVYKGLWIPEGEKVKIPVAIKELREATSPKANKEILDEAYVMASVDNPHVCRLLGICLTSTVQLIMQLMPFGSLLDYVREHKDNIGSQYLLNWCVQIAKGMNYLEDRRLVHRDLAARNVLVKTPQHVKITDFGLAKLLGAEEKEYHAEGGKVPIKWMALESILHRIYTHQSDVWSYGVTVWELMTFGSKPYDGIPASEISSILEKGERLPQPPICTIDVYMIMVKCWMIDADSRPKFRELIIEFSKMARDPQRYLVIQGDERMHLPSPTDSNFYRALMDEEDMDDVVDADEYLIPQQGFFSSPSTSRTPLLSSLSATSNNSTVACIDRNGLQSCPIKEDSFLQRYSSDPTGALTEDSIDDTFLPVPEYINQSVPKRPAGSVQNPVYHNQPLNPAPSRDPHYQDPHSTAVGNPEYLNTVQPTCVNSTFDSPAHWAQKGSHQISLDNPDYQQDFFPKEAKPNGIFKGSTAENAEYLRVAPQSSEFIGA

By IC50 is commonly meant the midpoint of a concentration-inhibition curve. Take `Oc1ccccc1-c1nc(NCc2cccnc2)c2ccccc2n1`: the IC50 stood at 24.3 µM in test [1] and 0.149 µM in test [2]. The Ratio IC50 in the test listed under Homo sapiens [3] was determined as 163.

As a reminder, the GI50 is the concentration at which growth is held to half of that of the control. A lower GI50 goes with greater sensitivity of the cells. Consider `C=CC(=O)N1CCC[C@@H](n2nc(-c3ccc4ccccc4c3)c3c(N)ncnc32)C1`, for which the GI50 in the test on NCI-H1975 was 0.14 µM. Moreover, the half-maximal inhibitory concentration (IC50) in test [4] was below 0.001 µM; in test [5] it was 0.088 µM.

With `C=CC(=O)Nc1cccc(Oc2nc(Nc3ccc(N4CCN(C)CC4)cc3OC)ncc2Cl)c1`, the Ratio IC50 in the test listed under Homo sapiens [6] lay in the range of 30 to 100.

As to `C=CC(=O)N1CCC[C@@H](n2nc(-c3cccc4ccccc34)c3c(N)ncnc32)C1`, in the test with NCI-H1975, growth was halved (GI50) at 0.49 µM. The figures for the half-inhibitory concentration (IC50) in test [4] and in test [5] were 0.0019 µM and 7.9 µM, respectively.

As for `COc1cc(N2CCC(N3CCN(C)CC3)CC2)ccc1Nc1ncnc(Nc2ccccc2S(=O)(=O)C(C)C)n1`, the GI50 in test [7] worked out at 1.51 µM. That is a single-digit micromolar value.

As for `N#Cc1ccc(O)c(-c2nc(NCc3cnccn3)c3ccccc3n2)c1`, the IC50 in test [1] is above 50 µM; in test [2], 0.017 µM. Besides, the Ratio IC50 in the test listed under Homo sapiens [3] is above 1000.

Molecule `C=CC(=O)N1CCC[C@@H](n2nc(-c3cn(C)c4ccccc34)c3c(N)ncnc32)C1` returned a GI50 in the test on NCI-H1975 of 0.21 µM. The IC50 came to 0.0025 µM in test [4] and 0.838 µM in test [5].

Consider `COC(=O)c1ccc(O)c(-c2nc(NCc3cccnc3)c3ccccc3n2)c1`, for which the half-maximal inhibitory concentration (IC50) in test [1] was above 50 µM; in test [2], 0.046 µM. The Ratio IC50 in the test listed under Homo sapiens [3] is above 1000.

`Cc1cc(Nc2ncc(Cl)c(Nc3ccccc3S(=O)(=O)C(C)C)n2)c(OC(C)C)cc1C1CCNCC1` registered a GI50 in test [7] of 0.78 µM.

In test [7], `COc1cc(N2CCC(N(C)C)CC2)ccc1Nc1ncc(Cl)c(Nc2ccccc2P(C)(C)=O)n1` showed a GI50 of 0.0591 µM.

On to `COc1cc(N2CCC(N)CC2)ccc1Nc1ncc(Cl)c(-c2c[nH]c3ccccc23)n1`, for which the GI50 in test [7] was found to be 0.132 µM.

`N#Cc1ccc(O)c(-c2nc(NCc3cccnc3)c3ccccc3n2)c1`: the half-maximal inhibitory concentration (IC50) in test [1] is above 50 µM; in test [2], 0.023 µM. Moreover, the Ratio IC50 in the test listed under Homo sapiens [3] is above 1000.
